Test results: ChEMBL document CHEMBL4270497, “Recent advances (2015-2016) in anticancer hybrids” (Eur J Med Chem, 2017)
In brackets after ≈: the same amount, converted by molar mass.

Columns and labels:
KB = test: Cytotoxicity in human KB cells assessed as reduction in cell viability; format: functional, cell-based
HeLa [1] = test: Antiproliferative activity against human HeLa cells incubated for 48 hrs by MTT assay; format: functional, cell-based
A549 [2] = test: Antiproliferative activity against human A549 cells incubated for 48 hrs by MTT assay; format: functional, cell-based; details: A549, 48 h
Bel-7402 = test: Antiproliferative activity against human Bel7402 cells incubated for 48 hrs by MTT assay; format: functional; details: Bel-7402, 48 h
PC-3 [3] = test: Antiproliferative activity against human PC3 cells incubated for 48 hrs by MTT assay; format: functional; details: PC-3, 48 h
K562 [4] = test: Antiproliferative activity against human K562 cells incubated for 48 hrs by MTT assay; format: functional; details: K562, 48 h
MCF7 [5] = test: Antiproliferative activity against human MCF7 cells incubated for 24 hrs by MTT assay; format: functional, cell-based; details: MCF7, 24 h
A549 [6] = test: Antiproliferative activity against human A549 cells incubated for 24 hrs by MTT assay; format: functional, cell-based; details: A549, 24 h
HeLa [7] = test: Antiproliferative activity against human HeLa cells incubated for 24 hrs by MTT assay; format: functional, cell-based
MCF7 [8] = test: Antiproliferative activity against human MCF7 cells incubated for 48 hrs by MTT assay; format: functional, cell-based; details: MCF7, 48 h
HCT-116 = test: Antiproliferative activity against human HCT116 cells incubated for 48 hrs by MTT assay; format: functional, cell-based; details: HCT-116, 48 h
A549 [9] = test: Cytotoxicity in human A549 cells assessed a reduction in cell viability incubated for 48 hrs by MTT assay; format: functional, cell-based; details: A549, 48 h
HT-29 [10] = test: Cytotoxicity in human HT-29 cells assessed as reduction in cell viability incubated for 48 hrs by MTT assay; format: functional, cell-based; details: HT-29, 48 h
PC-3 [11] = test: Cytotoxicity in human PC3 cells assessed as reduction in cell viability incubated for 48 hrs by MTT assay; format: functional, cell-based; details: PC-3, 48 h
A549 [12] = test: Cytotoxicity in human A549 cells assessed as reduction in cell viability incubated for 48 hrs by MTT assay; format: functional, cell-based; details: A549, 48 h
U-87 MG = test: Cytotoxicity in human U87MG cells assessed as reduction in cell viability incubated for 48 hrs by MTT assay; format: functional, cell-based, U-87MG ATCC
A498 = test: Growth inhibition of human A498 cells at 10 uM; format: functional; details: read-out: GI
MDA-MB-231 [13] = test: Growth inhibition of human MDA-MB-231 cells at 10 uM; format: functional; details: read-out: GI
HEK293 [14] = test: Cytotoxicity in HEK293 cells at 100 uM by MTT assay; format: cell-based; details: human, hek293, 100 µM
DU-145 = test: Antiproliferative activity against human DU145 cells incubated for 48 hrs by MTT assay; format: functional, cell-based; details: DU-145, 48 h
MDA-MB-231 [15] = test: Antiproliferative activity against human MDA-MB-231 cells incubated for 48 hrs by MTT assay; format: functional, cell-based; details: MDA-MB-231, 48 h
SK-OV-3 = test: Antiproliferative activity against human SKOV3 cells incubated for 48 hrs by MTT assay; format: functional, cell-based; details: SK-OV-3, 48 h
HUVEC = test: Antiproliferative activity against human HUVEC cells incubated for 48 hrs by MTT assay; format: functional, cell-based
HT-29 [16] = test: Antiproliferative activity against human HT-29 cells incubated for 48 hrs by MTT assay; format: functional, cell-based; details: HT-29, 48 h
HEK293 [17] = test: Antiproliferative activity against HEK293 cells incubated for 48 hrs by MTT assay; format: cell-based; details: Homo sapiens, HEK293, 48 h
REH = test: Cytotoxicity in human REH cells assessed as reduction in cell viability incubated for 48 to 72 hrs by trypan blue dye exclusion assay; format: functional, cell-based
K562 [18] = test: Cytotoxicity in human K562 cells assessed as reduction in cell viability incubated for 48 to 72 hrs by trypan blue dye exclusion assay; format: functional, cell-based
[19] = biological target: Epidermal growth factor receptor (Homo sapiens, UniProt P00533); test: Inhibition of 6x-His-tagged human EGFR cytoplasmic domain (645 to 1186 amino acids) assessed as reduction in autophosphorylation pre-incubated for 10 mins and measured after 1 hr by DELFIA/time-resolved fluorometry
B16-F10 = test: Antiproliferative activity against mouse B16F10 cells incubated for 48 hrs by MTT assay; format: functional, cell-based; details: B16-F10, 48 h
MCF7 [20] = test: Cytotoxicity in human MCF7 cells assessed as reduction in cell viability incubated for 48 hrs by MTT assay; format: functional, cell-based; details: MCF7, 48 h
MDA-MB-231 [21] = test: cells; details: Homo sapiens, MDA-MB-231, 24 h
Description: Cytotoxicity in human MDA-MB-231 cells assessed as reduction in cell viability incubated for 24 hrs by MTT assay

Epidermal growth factor receptor, sequence (P00533 whole entry, the tested form may be a part): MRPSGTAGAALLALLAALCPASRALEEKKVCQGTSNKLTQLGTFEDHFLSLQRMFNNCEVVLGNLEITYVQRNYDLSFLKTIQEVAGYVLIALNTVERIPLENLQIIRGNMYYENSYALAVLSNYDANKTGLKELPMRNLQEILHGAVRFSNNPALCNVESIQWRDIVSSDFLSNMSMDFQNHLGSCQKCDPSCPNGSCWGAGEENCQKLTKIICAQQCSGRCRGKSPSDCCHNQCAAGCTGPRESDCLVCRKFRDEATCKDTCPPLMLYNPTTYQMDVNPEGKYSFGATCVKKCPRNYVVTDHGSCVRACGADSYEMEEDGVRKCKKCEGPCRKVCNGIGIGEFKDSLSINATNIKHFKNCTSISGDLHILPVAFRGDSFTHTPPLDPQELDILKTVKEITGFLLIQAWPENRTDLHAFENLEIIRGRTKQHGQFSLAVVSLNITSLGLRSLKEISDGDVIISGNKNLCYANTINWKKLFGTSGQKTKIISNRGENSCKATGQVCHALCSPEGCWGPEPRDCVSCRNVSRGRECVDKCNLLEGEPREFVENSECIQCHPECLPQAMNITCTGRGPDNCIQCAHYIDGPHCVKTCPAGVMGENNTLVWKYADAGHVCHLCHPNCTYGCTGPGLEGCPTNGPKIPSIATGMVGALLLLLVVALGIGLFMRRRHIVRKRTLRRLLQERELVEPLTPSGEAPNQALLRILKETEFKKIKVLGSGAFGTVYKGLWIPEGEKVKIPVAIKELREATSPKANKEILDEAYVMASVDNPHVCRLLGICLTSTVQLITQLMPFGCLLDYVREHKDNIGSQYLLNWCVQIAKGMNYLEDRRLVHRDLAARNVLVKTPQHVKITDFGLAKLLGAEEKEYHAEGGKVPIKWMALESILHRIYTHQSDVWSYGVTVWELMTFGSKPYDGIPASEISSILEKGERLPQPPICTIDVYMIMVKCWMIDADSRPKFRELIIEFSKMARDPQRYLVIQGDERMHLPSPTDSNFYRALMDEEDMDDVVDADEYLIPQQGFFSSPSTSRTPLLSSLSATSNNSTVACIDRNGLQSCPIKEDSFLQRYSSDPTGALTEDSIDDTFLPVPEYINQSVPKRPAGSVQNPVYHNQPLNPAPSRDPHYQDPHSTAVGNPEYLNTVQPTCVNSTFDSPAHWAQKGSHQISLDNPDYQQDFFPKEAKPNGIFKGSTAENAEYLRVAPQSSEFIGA

## O=C(/C=C/c1ccc(/C=C/C(=O)c2cccc3c2C(=O)c2ccccc2C3=O)cc1)c1ccccc1
KB
  IC50: 0.66 µg/mL (≈ 1.41 µM)

## COc1cc2c(c(OC)c1OC)C/C(=C\c1cccc3[nH]ccc13)C2=O
HeLa [1]
  GI50: 26 to 35 nM
A549 [2]
  GI50: 26 to 35 nM
Bel-7402
  GI50: 26 to 35 nM
PC-3 [3]
  GI50: 26 to 35 nM
K562 [4]
  GI50: 26 to 35 nM

## COc1ccc(Cc2nnc(COc3ncnc4ccccc34)o2)cc1OC
MCF7 [5]
  IC50: 230 nM
A549 [6]
  IC50: 380 nM
HeLa [7]
  IC50: 320 nM

## COc1ccc(N/C=C/C(=O)c2cccnc2Nc2cc(OC)c(OC)c(OC)c2)cc1
HeLa [1]
  IC50: 510 to 1290 nM
MCF7 [8]
  IC50: 510 to 1290 nM
A549 [2]
  IC50: 510 to 1290 nM
HCT-116
  IC50: 510 to 1290 nM

## COc1ccc(C(=O)/C=C/c2cc3c([nH]c4ccccc43)c(-c3ccc(OC)c(OC)c3)n2)cc1
A549 [9]
  IC50: < 10000 nM

## COc1cc(-c2nc(/C=C/C(=O)c3cc(OC)c(OC)c(OC)c3)cc3c2[nH]c2ccccc23)ccc1F
A549 [9]
  IC50: < 10000 nM

## COc1ccc(Cn2cc(C(=O)c3cn(-c4ccccc4)nc3-c3ccc(Cl)cc3)nn2)cc1OC
HT-29 [10]
  IC50: 2420 nM
PC-3 [11]
  IC50: 3710 nM
A549 [12]
  IC50: 1930 nM
U-87 MG
  IC50: 860 nM

## COc1ccc(-c2nc(/C=C/C(=O)c3ccc([N+](=O)[O-])cc3)cc3c2[nH]c2ccccc23)cc1OC
A549 [9]
  IC50: < 10000 nM

## COc1ccc(C(=O)/C=C/c2cc3c([nH]c4ccccc43)c(-c3ccc(F)cc3)n2)cc1
A549 [9]
  IC50: < 10000 nM

## COc1ccc(-c2cn3c(-c4ccc(OC)cc4)cnc3c(Oc3ccc4c(C)cc(=O)oc4c3)n2)cc1
A498
  inhibition of growth at 10 µM: 90%
MDA-MB-231 [13]
  inhibition of growth at 10 µM: 93%
HEK293 [14]
  Activity: 17%

## CC12CCC(OC(=O)CCC(=O)OCCOc3no[n+]([O-])c3S(=O)(=O)c3ccccc3)CC1=CCC1C2CCC2(C)c3c(cnn3-c3ccccc3)CC12 (stereo unspecified)
DU-145
  IC50: 20 nM
MDA-MB-231 [15]
  IC50: 1.4 nM
SK-OV-3
  IC50: 3.4 nM
HUVEC
  IC50: 3.5 nM

## Nc1ccc(C(=O)/C=C/c2cc3c([nH]c4ccccc43)c(-c3ccc(F)cc3)n2)cc1
A549 [9]
  IC50: < 10000 nM

## O=C(c1cn(Cc2cccc(Oc3ccccc3)c2)nn1)c1cccnc1Nc1ccc(F)cc1
HT-29 [16]
  IC50: 200 nM
DU-145
  IC50: 100 nM
A549 [2]
  IC50: 1100 nM
HEK293 [17]
  IC50: 59600 nM

## COc1cc(C(=O)N/N=C2\C(=O)Nc3ccc(C)cc32)cc(OC)c1OC
REH
  IC50: 500 nM
K562 [18]
  IC50: 2000 nM

## COc1cc(-c2nc(/C=C/C(=O)c3ccc([N+](=O)[O-])cc3)cc3c2[nH]c2ccccc23)ccc1F
A549 [9]
  IC50: < 10000 nM

## O=C1CSC(N2N=C(c3ccncc3)CC2c2ccc(Br)cc2)=N1 (stereo unspecified)
[19]
  IC50: 9 nM
B16-F10
  IC50: 90 nM
HeLa [1]
  IC50: 290 nM
MCF7 [8]
  IC50: 560 nM

## COc1ccc(C(=O)/C=C/c2cc3c([nH]c4ccccc43)c(-c3ccc(F)c(OC)c3)n2)cc1
A549 [9]
  IC50: < 10000 nM

## COc1cc(-c2nc(/C=C/C(=O)c3ccc(N)cc3)cc3c2[nH]c2ccccc23)cc(OC)c1OC
A549 [9]
  IC50: < 10000 nM

## O=Cc1c(-c2cc3cc(Br)ccc3oc2=O)[nH]c2ccccc12
MCF7 [20]
  IC50: 7400 nM

## COc1cc(-c2nc(/C=C/C(=O)c3ccc([N+](=O)[O-])cc3)cc3c2[nH]c2ccccc23)cc(OC)c1OC
A549 [9]
  IC50: < 10000 nM

## COc1cc(C(=O)/C=C/c2cc3c([nH]c4ccccc43)c(-c3ccc(F)cc3)n2)cc(OC)c1OC
A549 [9]
  IC50: < 10000 nM

## CCCC(CC)NC(=O)c1c(C)[nH]c(/C=C2\C(=O)Nc3nc(C)c(O)c(C)c32)c1C (stereo unspecified)
MDA-MB-231 [21]
  IC50: 3210 nM
